The subject of this assay is CEM cells HIV-1 protection, formazan growth assay. The assay can be described thus: NCI AIDS Antiviral Assay. The note with it: for IC50: measured here: growth of uninfected CEM cells. The essentials: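 Human CEM cells, uninfected and HIV-1-infected, exposed to five drug concentrations; growth measured by soluble formazan assay and scored as percent protection from infection, with protecting compounds retested.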

The values below come from PubChem BioAssay AID179 (DTP/NCI, 2004).

Molecules are shown by their SMILES. Active and inactive are the calls of the source.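 How the source made its calls: active means compounds giving half or more protection of infected cells from virus-caused growth loss, again on retest; inactive means the rest.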 Where a SMILES comes first, the peptide text is derived from it. The star is where a group is joined. Boc = CC(C)(C)OC(=O)*

For orientation: EC50 means the concentration needed to bring the measured effect to its halfway point. What is called IC50 is the concentration that gives 50% inhibition. The low end stands for greater potency in that assay, the high end for weaker potency in that assay.

For `COc1cc(Nc2nc3cc(C)ccc3nc2-c2ccccc2)cc(OC)c1OC`, the EC50 is greater than 200 µM and the IC50 came to 34.7 µM.

Consider `C1CCN(c2nsc(N3CCCCC3)n2)CC1`, for which the outcome was inactive.

In the case of `O=C1COc2cccnc2N1CCCCO`, the EC50 was greater than 200 µM and the IC50 was greater than 200 µM.

On to `c1ccc(P(OCCCCOP(c2ccccc2)c2ccccc2)c2ccccc2)cc1`, for which the EC50 is greater than 200 µM and the IC50 was found to be 85.1 µM.

For the compound `Nc1c2ccccc2nc2ccc3c(=O)cc(-c4ccccc4)oc3c12`, the EC50 is greater than 20 µM and the IC50 came to 0.912 µM.

For the compound `CN1CCN(CCSSCCN2CCN(C)CC2)CC1`, the EC50 is greater than 200 µM and the 50% inhibitory concentration (IC50) is greater than 200 µM.

Regarding `N#Cc1c(-c2ccc([N+](=O)[O-])cc2)c(=O)oc2cc(O)ccc12`, the EC50 was greater than 100 µM and the IC50 was 74.1 µM.

As to `CC(C)/C(Cl)=N\OC(NC(=O)P(=O)(c1ccccc1)c1ccccc1)(C(F)(F)F)C(F)(F)F`, the EC50 is greater than 200 µM and the IC50 came out at 10.5 µM.

On to `CCN(CC)c1ccc(Cl)c2c1C(O)(C(C)C)C2(C)C` (stereo unspecified), for which the EC50 was greater than 200 µM and the IC50 is 58.9 µM.

Consider `Cc1ncc([N+](=O)[O-])n1CCNC(=O)CCC(=O)NCCCn1ccnc1[N+](=O)[O-]`, for which the EC50 is greater than 200 µM and the IC50 was greater than 200 µM.

Consider `CCCC1C2C(=O)N(c3ccccc3)C(=O)C2ON1c1ccccc1` (stereo unspecified), for which the EC50 is greater than 40.7 µM and the IC50 was greater than 40.7 µM.

As to `CC(C)(C)[Si](C)(C)OCC1OC(n2ccc(=O)[nH]c2=O)C(O[Si](C)(C)C(C)(C)C)[C@]12N[C@H](C(=O)O)CS2` (stereo partly specified), the EC50 was greater than 200 µM and the IC50 turned out to be 10.7 µM.

In the case of `Clc1cc(OCC23CC4CC(CC(C4)C2)C3)nc(OCC23CC4CC(CC(C4)C2)C3)n1`, the EC50 is greater than 100 µM and the IC50 was greater than 100 µM.

Consider `Cc1ccc(C2=C(c3ccccc3)C(Br)(c3ccccc3)C(c3ccccc3)=C2c2ccc(C)cc2)cc1`, for which the EC50 was greater than 26.9 µM and the half-inhibitory concentration (IC50) was greater than 26.9 µM.

Consider `COc1ccc(-c2nc(N)c(C#N)c3c2CCS(=O)(=O)c2ccc(C)cc2-3)cc1OC`, for which the EC50 was greater than 200 µM and the IC50 worked out at 11.2 µM.

In the case of `Cc1nc(-c2nc(C)c(C(=O)/C=C/c3ccc(N(C)C)cc3)s2)sc1C(=O)/C=C/c1ccc(N(C)C)cc1`, the EC50 was greater than 34.7 µM and the IC50 is greater than 34.7 µM.

For `O=c1[nH][nH]c2c1SCc1ccccc1-2`, the EC50 is greater than 955 µM and the IC50 was 468 µM.

Consider `CCCCN(CC)C(=O)C1=C(C)NC(C)=C(C(=O)N(CC)CCCC)C1`, for which the EC50 is greater than 200 µM and the IC50 turned out to be 135 µM.

With `CCOP(=O)(OCC)/C(C#N)=C/c1ccc(-c2cc(C(F)(F)F)cc(C(F)(F)F)c2)o1`, the EC50 was greater than 200 µM and the IC50 worked out at 11.7 µM.

In the case of `COc1cccc(/C=N/[N-]C(N)=O)c1[O-].[Ni+2].[OH3+].c1ccc(-c2ccccn2)nc1`, the result was inactive.

As to `CN(C(=O)c1ccc2c(c1)sc1c(=O)n(C)c3ccccc3c12)c1ccccc1`, the EC50 was greater than 200 µM and the IC50 is greater than 200 µM.

As for `COc1ccc2c(ccc3[nH]c4c(C)cnc(NCCCN)c4c32)c1`, the EC50 was greater than 2 µM and the IC50 stood at 0.219 µM.

In the case of `CC1(C)CS(=O)(=O)CC(C)(C)C(=O)C1=O`, the EC50 is greater than 200 µM and the IC50 is greater than 200 µM.

With `O=C(CCN1CCCCC1CCO)Nc1ccc2c(c1)C(=O)c1ccc(NC(=O)CCN3CCCCC3CCO)cc1C2=O` (stereo unspecified), the EC50 is greater than 200 µM and the half-inhibitory concentration (IC50) turned out to be 2.63 µM.

Turning to `COc1cc(C(=O)N(C)N(C)C)cc(OC)c1OC`, the EC50 is greater than 200 µM and the IC50 was greater than 200 µM.

Take `Cc1ncc2c[n+]([O-])ccn12`: the EC50 is greater than 1660 µM and the IC50 is greater than 1660 µM.

On to `Cc1cc(C)c2c(c1)CC2(Cl)Cl`, for which the EC50 is greater than 178 µM and the IC50 is greater than 178 µM.

For `C=C1C(OC(=O)C(OC(C)=O)C(c2ccccc2)N(C)C)C[C@H](OC(C)=O)[C@]2(C)C1C(OC(C)=O)[C@@H]1CC(OC(C)=O)C(C)=C([C@@H](OC(C)=O)C2OC(C)=O)C1(C)C` (stereo partly specified), the result was inactive.

For the compound `O=C(Nc1ccc(S(=O)(=O)Nc2ncccn2)cc1)c1ccc(C(=O)Nc2ccc(S(=O)(=O)Nc3ncccn3)cc2)cc1`, the EC50 was greater than 200 µM and the IC50 is greater than 200 µM.

For the compound `CC(NC(=O)C1CCCN1C(=O)CNC(=O)OC(C)(C)C)C(=O)O` (stereo not drawn) (Boc-Gly-Pro-Ala-OH; configuration not given here), the EC50 is greater than 200 µM and the 50% inhibitory concentration (IC50) is greater than 200 µM.

As for `COc1cccc(C2SCC(=O)N2c2ccc(-c3ccc(-n4c(-c5ccccc5)nc5ccccc5c4=O)cc3)cc2)c1OC` (stereo unspecified), the EC50 is greater than 200 µM and the IC50 turned out to be 63.1 µM.

As to `Cc1nn(C(=O)c2ccc(Cl)cc2)c2c1C(c1ccco1)SC(N)=N2` (stereo unspecified), the EC50 was 170 µM and the IC50 is greater than 200 µM.

For `CC1(C)CCNc2ccccc2S1`, the EC50 is greater than 229 µM and the IC50 was greater than 229 µM.

Consider `COc1cc(/C=C/C(=N\NC(=O)c2ccccc2)c2sc(Nc3ccc(Cl)c(Cl)c3)nc2C)ccc1O`, for which the EC50 was greater than 46.8 µM and the IC50 amounted to 38.9 µM.

For the compound `CCCNC(=O)N(CCN(C)C)S(=O)(=O)c1ccc(Cl)cc1`, the outcome was inactive.

`O/N=C/C1C(OCc2ccccc2)C(OCc2ccccc2)C(OCc2ccccc2)CN1Cc1ccccc1` (stereo unspecified): the outcome was inactive.

In the case of `O=C1COC(c2ccccc2O)=NN1Cc1ccccc1`, the EC50 is greater than 49 µM and the IC50 was greater than 49 µM.

Consider `CN(CCC#N)c1ccc(/C=C(\C#N)c2ccc(Cl)cc2)cc1`, for which the EC50 was greater than 200 µM and the IC50 is 15.5 µM.

As to `Cc1nn(C(=O)c2ccccc2O)c2c1C(c1ccc(O)cc1)SC(N)=N2` (stereo unspecified), the EC50 was greater than 2 µM and the IC50 turned out to be 0.129 µM.

Regarding `CN(C)c1cc(CNCCc2cnc[nH]2)nc(CNCCc2cnc[nH]2)c1`, the EC50 was greater than 200 µM and the IC50 turned out to be 12.3 µM.

With `COc1ccc2c(c1OC)C[N+]1(C)CCc3cc4c(cc3C1C2)OCO4` (stereo unspecified), the EC50 is greater than 158 µM and the IC50 is greater than 158 µM.

Take `O=C(O)CCNS(=O)(=O)c1ccc([N+](=O)[O-])cc1`: the result was inactive.

Consider `O=[N+]([O-])O.[Tb]`, for which the outcome was inactive.

Turning to `CC(=O)C(N)=NCc1ccccc1`, the EC50 is greater than 1410 µM and the IC50 worked out at 1020 µM.

With `c1ccc2c(c1)CN1CCCC1CN2` (stereo unspecified), the EC50 was greater than 200 µM and the half-maximal inhibitory concentration (IC50) was greater than 200 µM.

Take `CN(C)CCCNC(=O)c1cc(NC(=O)c2cc(NC(=O)c3cc(NC(=O)c4ccnc(C(=O)Nc5cc(C(=O)Nc6cc(C(=O)Nc7cc(C(=O)NCCCN(C)C)n(C)c7)n(C)c6)n(C)c5)c4)cn3C)cn2C)cn1C`: the EC50 is greater than 100 µM and the IC50 was greater than 100 µM.

With `O=C(O)[C@H](Cc1ccccc1)NCCN1CCC[C@H]1C(=O)O`, the EC50 is greater than 200 µM and the IC50 is greater than 200 µM.

On to `CC(C)=C[C@@H]1C[C@H](C)c2c(O)cc(C)c3c2C1=C(C)C(=O)C3=O`, for which the EC50 is greater than 200 µM and the IC50 is 22.4 µM.

Regarding `CCN(CC)c1ccc(NC(=S)NN)cc1`, the EC50 is greater than 200 µM and the IC50 stood at 11.2 µM.

For the compound `O=C1CC(=O)n2cnc3cccc(c32)N1`, the EC50 is 17.4 µM and the IC50 was greater than 200 µM.

`COc1ccc(C[C@H]2COC(=O)[C@@H]2Cc2ccc3c(c2)OCO3)cc1OC`: the EC50 was greater than 200 µM and the IC50 came out at 19.1 µM.

As for `CCN(CC)CC(C)(C)C(=O)/C=C/c1ccc(/C=C/C(=O)C(C)(C)CN(CC)CC)cc1`, the result was inactive.

As to `CN1C(=O)c2cccc3cc([N+](=O)[O-])cc(c23)C1=O`, the EC50 is greater than 53.7 µM and the concentration for half-maximal inhibition (IC50) stood at 10.2 µM.

As for `CN(C)c1ccc(N=O)c(O)c1`, the EC50 is greater than 200 µM and the concentration for half-maximal inhibition (IC50) was 8.71 µM.

Turning to `CCN(CC)CC(C)(C)C(=O)/C=C/c1ccc(C)cc1`, the outcome was inactive.

Regarding `c1ccc(C(NC2=NCCO2)c2ccccc2)cc1`, the outcome was inactive.

As for `OC(=Nc1cc(C(O)=Nc2cc(C(O)=Nc3cc(C(O)=Nc4ccc(C5=NCCN5)cc4)cc(C4=NCCN4)c3)cc(C3=NCCN3)c2)cc(C2=NCCN2)c1)c1ccc(C(O)=Nc2cc(C(O)=Nc3cc(C(O)=Nc4cc(C(O)=Nc5ccc(C6=NCCN6)cc5)cc(C5=NCCN5)c4)cc(C4=NCCN4)c3)cc(C3=NCCN3)c2)cc1`, the EC50 was 14.5 µM and the IC50 was greater than 100 µM.

`COc1cccc(C2ON=C(c3ccccc3)N2C23CC4CC(CC(C4)C2)C3)c1` (stereo unspecified): the EC50 was greater than 200 µM and the IC50 was 58.9 µM.

Regarding `CCOC(=O)c1nc2ccc([N+](=O)[O-])cc2c2c1CCO2`, the EC50 is greater than 63.1 µM and the IC50 was greater than 63.1 µM.

As to `O=C(CCn1[nH]c(=O)c(Cl)c(Cl)c1=O)NNC(=O)C[n+]1ccccc1`, the EC50 was greater than 589 µM and the half-inhibitory concentration (IC50) is greater than 589 µM.

In the case of `C[Si](C)(OCCS(=O)(=O)O)C1(Cc2cccc3ccccc23)S(=O)(=O)OCCOS1(=O)=O`, the EC50 is greater than 200 µM and the IC50 stood at 107 µM.

`COC(=O)c1cc(C(=CCl)c2cc(C(=O)OC)c(OC)c(Br)c2C)c(C)c(Br)c1OC`: the EC50 was greater than 200 µM and the half-maximal inhibitory concentration (IC50) amounted to 6.46 µM.

Regarding `Cc1cc(O)c2c(c1)OC1(C)CCC3C(C)(C)CCCC34COC2C14` (stereo unspecified), the EC50 is greater than 55 µM and the half-maximal inhibitory concentration (IC50) came to 1.58 µM.

On to `COc1c(O)c2c(=O)cc(OC)c3c4c(OC)cc(=O)c5c(O)c(OC)c6c(c(c1CC(C)=C6OC(C)=O)c23)c54`, for which the EC50 was greater than 4.79 µM and the IC50 worked out at 1.29 µM.

With `C=C1CN(S(=O)(=O)c2ccc(C)cc2)CCCCN(Cc2ccccc2)CCCN(S(=O)(=O)c2ccc(C)cc2)C1`, the EC50 is greater than 200 µM and the IC50 stood at 6.92 µM.

With `COc1ccc(C2S/C(=C\c3ccccc3)C(=O)N2NC(=O)Cc2ccccc2)cc1` (stereo unspecified), the EC50 was greater than 23.4 µM and the half-inhibitory concentration (IC50) stood at 19.1 µM.

Take `CC(C)(C)c1cc(C2COC(c3cc(C(C)(C)C)c(O)c(C(C)(C)C)c3)CO2)cc(C(C)(C)C)c1O` (stereo unspecified): the EC50 is greater than 50.1 µM and the IC50 is greater than 50.1 µM.

As to `CCOC(=O)c1noc(Oc2ccc(Cl)cc2Cl)n1`, the EC50 is greater than 44.7 µM and the IC50 amounted to 25.1 µM.
